This passage reports Emax results from US7745657B2, “D-homoandrosta-17-yl carbamate derivatives as selective glucocorticoid receptor ligands” (Merck Sharp & Dohme Corp., priority 2005, dated 2010).

Some results are limits rather than exact numbers.

The target in the assay is T1, human GR (Homo sapiens, UniProt P04150).
T1 construct: U937 cells contain an endogenous glucocorticoid receptor (GR); endogenous in cells; host or cells: U937 cells stably transfected with the TNF-alpha promoter / beta-lactamase reporter
T1 sequence (P04150 1-777): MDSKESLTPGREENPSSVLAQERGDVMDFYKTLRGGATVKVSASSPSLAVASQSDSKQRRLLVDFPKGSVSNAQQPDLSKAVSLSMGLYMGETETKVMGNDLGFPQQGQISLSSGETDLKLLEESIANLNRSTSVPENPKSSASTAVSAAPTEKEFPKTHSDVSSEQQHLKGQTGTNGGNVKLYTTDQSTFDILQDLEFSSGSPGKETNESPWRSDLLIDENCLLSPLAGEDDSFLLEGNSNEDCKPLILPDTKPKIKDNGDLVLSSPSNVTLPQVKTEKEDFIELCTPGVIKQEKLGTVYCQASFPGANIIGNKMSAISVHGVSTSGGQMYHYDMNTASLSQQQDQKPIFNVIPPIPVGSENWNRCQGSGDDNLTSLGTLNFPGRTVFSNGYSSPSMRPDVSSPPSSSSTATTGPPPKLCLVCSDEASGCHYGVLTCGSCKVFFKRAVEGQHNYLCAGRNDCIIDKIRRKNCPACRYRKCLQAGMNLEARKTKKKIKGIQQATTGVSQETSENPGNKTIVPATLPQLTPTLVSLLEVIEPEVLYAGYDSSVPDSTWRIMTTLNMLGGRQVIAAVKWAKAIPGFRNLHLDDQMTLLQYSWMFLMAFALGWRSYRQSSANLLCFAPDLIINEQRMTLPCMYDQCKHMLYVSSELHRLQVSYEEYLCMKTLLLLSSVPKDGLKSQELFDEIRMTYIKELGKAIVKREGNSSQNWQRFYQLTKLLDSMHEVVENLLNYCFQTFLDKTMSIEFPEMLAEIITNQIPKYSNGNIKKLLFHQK
The experiment in a line: Transrepression assay, TNFα-β-lactamase reporter gene in U937 cells. The assay is classed as cell-based. The settings on record: U-937, PMA/LPS stimulated, activity repressed by 100 nM dexamethasone alone set as 100%, read-out: maximal activity. An excerpt: This assay assesses the ability of test compounds to control transcription from the TNFα-β-lactamase reporter gene in U937 cells, a human myelomonocytic leukemia cell line that naturally expresses the human GR. The assay measures compound dependent-repression of the TNFα promoter linked to a reporter gene.
The human U937 cells that had been stablely transfected with the TNF-αpromoter driving β-lactamase are used for this assay. U937 cells contain an endogenous glucocorticoid receptor (GR). Cells are maintained in RPMI 1640 Growth medium (Gibco Cat#11875-093) containing 25 mM HEPES, 10% FBS, 2 mM L-Glutamine, 1 mM Sodium pyruvate, 25 μg/ml Gentamicin (Gibco Cat#15710-064), 1:1000 2-Mercaptoethanol (Gibco Cat#21985-023) and 0.8 mg/ml G418 (Gibco Cat#10131-027). The density of the cells in the flask needs to be about 1×10^6−3×10^6/ml at the time of harvest. Usually, the cells are split to 1.2˜1.4×10^5/ml (1:10) 3 days prior to the assay. 50,000 cells/well are plated in 96 well black-walled plates the day of assay. Test compounds are added 10 μL/well, and cells are incubated at 37° C. for 30˜45 min. For assaying compounds, first dilute 1:10 in DMSO to make 1 mM, then further dilute 1:100 in medium to make 10× stock prior to adding to the cells. Add 50 ng/ml PMA (Sigma, cat# P8139) 10 μL/well to a final concentration 5 ng/ml, and 1 μg/ml LPS (Sigma, cat# L4130) 10 μL/well to a final concentration 100 ng/ml. Incubate cells at 37° C. overnight for ˜18 hr. PMA is stored frozen as 100 μg/ml stock in DMSO. Dilute 1:10 in DMSO for a working stock of 10 μg/ml and store at −20 C. For assaying, dilute the 10 μg/ml working stock 1:200 in medium to make a 10× solution (50 ng/ml). Store frozen LPS at 1 mg/ml in PBS, dilute 1:1000 in medium to make 10× (1 μg/ml) for the assay. Add 6× loading buffer (CCF2-AM) 20 μL/well, and incubate at room temperature for 70˜90 min. […] The activity repressed by 100 nM dexamethasone alone is set as 100% activity.
A general note: Reporter assays use an easily measured gene product as a stand-in for the process of interest.
As to `CC1CC2C3CCC4=CC(=O)C=CC4(C)C3(F)C(OC(=O)C(F)(F)F)CC2(C)C(=O)C1(CO)OC(=O)NC12CC3CC(CC(C3)C1)C2` [Example 7, (11β,16β,17α)-9-fluoro-11-trifluoroacetoxy-16-methyl-3,17a-dioxo-17-(hydroxymethyl)-D-homoandrostra-1,4-dien-17-yl-(1-adamantyl)carbamate], the Emax was greater than 5%.
Next, `CCCC(C)NC(=O)OC1(CO)C(=O)C2(C)CC(O)C3(F)C(CCC4=CC(=O)C=CC43C)C2CC1C` [Example 2, (11β,16β,17α)-9-fluoro-11-hydroxy-16-methyl-3,17a-dioxo-17-(hydroxymethyl)-D-homoandrosta-1,4-dien-17-yl-(2-pentyl)carbamate]: greater than 5%; `CC1CC2C3CCC4=CC(=O)C=CC4(C)C3(F)C(O)CC2(C)C(=O)C1(CO)OC(=O)NC1CCCCC1` [Example 9, (11β,16β,17α)-9-fluoro-11-hydroxy-16-methyl-3,17a-dioxo-17-(hydroxymethyl)-D-homoandrosta-1,4-dien-17-yl-(cyclohexyl)carbamate]: greater than 5%.
`CC(=O)OCC1(OC(=O)NC23CC4CC(CC(C4)C2)C3)C(=O)C2(C)CC(O)C3(F)C(CCC4=CC(=O)C=CC43C)C2CC1C` [Example 6, (11β,16β,17α)-9-fluoro-11-hydroxy-16-methyl-3,17a-dioxo-17-[(acetyloxy)methyl]-D-homoandrosta-1,4-dien-17-yl-(1-adamantyl)carbamate]: the Emax is greater than 5%.
Next, `C[C@H]1CC2C3CCC4=CC(=O)C=C[C@]4(C)[C@@]3(F)[C@@H](O)C[C@]2(C)C(=O)[C@]1(CO)OC(=O)NC12CC3CC(CC(C3)C1)C2` (stereo partly drawn) [Example 1, (11β,16β,17α)-9-fluoro-11-hydroxy-16-methyl-3,17a-dioxo-17-(hydroxymethyl)-d-homoandrosta-1,4-dien-17-yl-(1-adamantyl)carbamate]: greater than 5%; `CCCC(C)CNC(=O)OC1(CO)C(=O)C2(C)CC(O)C3(F)C(CCC4=CC(=O)C=CC43C)C2CC1C` [Example 3, (11β,16β,17α)-9-fluoro-11-hydroxy-16-methyl-3,17a-dioxo-17-(hydroxymethyl)-D-homoandrosta-1,4-dien-17-yl-(2-methyl-pentyl)carbamate]: greater than 5%; `CC(=O)OCC1(OC(=O)NC23CC4CC(CC(C4)C2)C3)C(=O)C2(C)CC(OC(=O)C(F)(F)F)C3(F)C(CCC4=CC(=O)C=CC43C)C2CC1C` [Example 5, (11β,16β,17α)-9-fluoro-11-trifluoroacetoxy-16-methyl-3,17a-dioxo-17-[(acety1oxy)methy1]-D-homoandrosta-1,4-dien-17-yl-(1-adamantyl)carbamate]: greater than 5%.
